Results from the supplement of paper PMC4858399.
Counter-ions that a name gives are not always drawn.

Key:
Conditions in all cases: exposure time 48 h
[1] = system: Caenorhabditis elegans N2; assay: AC50 for larval growth inhibition (Hill fit); higher = less potent
Outline: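 Worms were synchronised C. elegans N2 L1 larvae, 50 per well of a 96-well plate, kept 48 h at 20°C in K-medium with killed OP50, 1% DMSO and 0.5–200 µM chemical. Size was taken as COPAS Biosort extinction, log-transformed and averaged per well, using only wells with at least 10 worms. AC50 was estimated by a constrained Hill fit with weighted genetic-algorithm regression; values outside the range are censored.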

[2] = system: Caenorhabditis elegans N2; assay: lowest effective concentration for larval growth inhibition (size below effect threshold); higher = less potent
Outline: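 C. elegans N2 L1 larvae (50 per 96-well) were grown 48 h at 20°C in K-medium with killed bacteria, 1% DMSO and 0.5, 1, 5, 10, 50, 100 or 200 µM chemical. The Biosort measured per-worm extinction as size, and these were log-transformed into well means. The lowest effective concentration is the first dose where the plate-adjusted mean size drops under the 5.665 threshold and stays under it at higher doses.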

[3] = system: Caenorhabditis elegans N2; assay: mean nematode size ln(EXT) after 48 h, plate-adjusted (DMSO control set to 6) (ln(EXT), control-adjusted); higher = larger nematodes / less growth inhibition
Outline: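 Worms were measured individually for extinction on the Biosort after 48 h at 20°C. They began as synchronised C. elegans N2 L1 larvae in K-medium with killed OP50, 1% DMSO and 0.5–200 µM chemical. Once debris had been removed by a growth model, values were natural-logged and averaged per well to give mean size. The plate adjustment subtracted the vehicle control mean and added 6.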

Row | Structure (SMILES) | AC50 for larval growth inhibition [1] | lowest effective concentration [2] | mean nematode size ln(EXT) (ln) ([3]; 0.5 µM) | mean nematode size ln(EXT) (ln) ([3]; 1 µM) | mean nematode size ln(EXT) (ln) ([3]; 5 µM) | mean nematode size ln(EXT) (ln) ([3]; 10 µM) | mean nematode size ln(EXT) (ln) ([3]; 50 µM) | mean nematode size ln(EXT) (ln) ([3]; 100 µM) | mean nematode size ln(EXT) (ln) ([3]; 200 µM)
1 | COP(=S)(OC)Oc1nc(Cl)c(Cl)cc1Cl [Chlorpyrifos-methyl] | 96.8 µM | 100 µM | 6.24 | 6.29 | 6.3 | 6.17 | 5.93 | 4.68 | 3.59
2 | CCO/N=C(\CC)C1=C(O)CC(c2c(C)cc(C)cc2C)CC1=O (stereo not given) [Tralkoxydim] | 109 µM | 200 µM | 5.85 | 5.93 | 5.9 | 6.14 | 6.08 | 5.93 | 5.48
3 | CCCCCCCCCCCCN1CCCC1=O [N-Lauryl-2-pyrrolidone] | 16.1 µM | ≤ 0.5 µM | 5.42 | 5.51 | 5.45 | 4.97 | 3.49 | 3.53 | 3.03
4 | CCCCCCCC1CCC(=O)O1 (stereo not given) [5-Heptyldihydro-2(3H)-furanone] | 182 µM | 200 µM | 5.94 | 5.81 | 5.79 | 5.79 | 5.76 | 5.87 | 4.09
5 | CCOC(=O)C(Cl)Cc1cc(-n2nc(C)n(C(F)F)c2=O)c(F)cc1Cl (stereo not given) [Carfentrazone-ethyl] | > 200 µM | 200 µM | 6.04 | 5.98 | 6.04 | 6.04 | 5.93 | 5.98 | 5.59
6 | COP(=O)(OC)C(O)C(Cl)(Cl)Cl (stereo not given) [Trichlorfon] | 80.1 µM | 5 µM | 5.57 | 5.69 | 5.42 | 5.31 | 4.77 | 4.73 | 3.96
7 | CS/C(C)=N\OC(=O)N(C)SN(C)C(=O)O/N=C(\C)SC [Thiodicarb] | 28.4 µM | 5 µM | 5.54 | 5.83 | 5.32 | 5.34 | 4.27 | 3.74 | 3.51
8 | CC(C)N(Cc1ccccc1)C(=O)C(C)(C)C [Butam] | > 200 µM | 200 µM | 5.94 | 5.88 | 5.91 | 5.86 | 5.88 | 5.86 | 5.61
9 | O=C(O)C(F)(F)C(F)(F)C(F)(F)C(F)(F)C(F)(F)C(F)(F)C(F)(F)C(F)(F)C(F)(F)C(F)(F)F [Perfluoroundecanoic acid] | 4.14 µM | 5 µM | 5.8 | 5.77 | 4.55 | 3.95 | 3.63 | 3.64 | 3.2
10 | CCCCCCCCn1sccc1=O [Octhilinone] | 34.9 µM | ≤ 0.5 µM | 5.47 | 5.54 | 5.56 | 5.58 | 4.2 | 3.68 | 3.36
11 | CCOS(=O)(=O)OCC [Diethyl sulfate] | 55 µM | 100 µM | 5.87 | 5.85 | 5.83 | 5.88 | 5.88 | 4.98 | 5.42
12 | CC(C)C(=O)Nc1ccc([N+](=O)[O-])c(C(F)(F)F)c1 [Flutamide] | 112 µM | 10 µM | 5.89 | 5.88 | 5.89 | 5.62 | 4.96 | 4.82 | 4.05
13 | Clc1ccc(C(c2ccccc2Cl)C(Cl)(Cl)Cl)cc1 (stereo not given) [o,p'-DDT] | 24.1 µM | 10 µM | 5.7 | 5.89 | 5.78 | 5.19 | 4.4 | 4.09 | 3.85
14 | CC(C)(C)c1cccc(C(C)(C)C)c1O [2,6-Di-tert-butylphenol] | > 200 µM | 200 µM | 6.07 | 5.99 | 6.03 | 6.07 | 5.91 | 5.88 | 5.19
15 | C=CCCCCCCCCC(=O)O [10-Undecenoic acid] | > 200 µM | 200 µM | 5.77 | 6 | 5.9 | 5.88 | 5.76 | 5.8 | 5.62
16 | O=C(O)CCCCC(=O)O [Adipic acid] | > 200 µM | 200 µM | 5.82 | 5.73 | 5.75 | 5.76 | 5.76 | 5.74 | 5.5
17 | COC(=O)c1ccccc1N [Methyl 2-aminobenzoate] | > 200 µM | 200 µM | 5.88 | 5.87 | 5.91 | 5.88 | 5.8 | 5.7 | 5.64
18 | CC(C)(C)c1ccccc1O [2-tert-Butylphenol] | > 200 µM | 200 µM | 5.96 | 5.94 | 5.97 | 5.92 | 5.81 | 5.81 | 4.94
19 | Cc1ccc(C)c(O)c1C [2,3,6-Trimethylphenol] | > 200 µM | 200 µM | 5.88 | 6.02 | 5.94 | 5.93 | 5.93 | 5.9 | 5.65
20 | COC(=O)[C@H]1[C@H]2C[C@@H]3c4[nH]c5cc(OC)ccc5c4CCN3C[C@H]2C[C@@H](OC(=O)c2cc(OC)c(OC)c(OC)c2)[C@@H]1OC [Reserpine] | 12.6 µM | 10 µM | 5.86 | 5.87 | 5.74 | 5.66 | 5.04 | 4.95 | 5.17
21 | COCCOc1cc2cc(C(=O)NC3CCN(C(C)C)CC3)n(CC(=O)Nc3ccc(Cl)cn3)c2cn1 | 47.5 µM | 50 µM | 5.85 | 5.84 | 5.82 | 5.77 | 4.98 | 4.13 | 5.19
22 | CC(C)N(C(=O)SCC(Cl)=C(Cl)Cl)C(C)C [Tri-allate] | 86.7 µM | 50 µM | 5.72 | 5.91 | 5.86 | 5.9 | 5.39 | 4.62 | 3.99
23 | CC(C)=CC1C(C(=O)OCN2C(=O)C3=C(CCCC3)C2=O)C1(C)C (stereo not given) [Tetramethrin] | 78.6 µM | 100 µM | 5.94 | 5.96 | 6.03 | 6.01 | 5.76 | 4.97 | 4.57

Row | Structure (SMILES) | AC50 for larval growth inhibition [1] | lowest effective concentration [2] | mean nematode size ln(EXT) (ln) ([3]; 0.5 µM) | mean nematode size ln(EXT) (ln) ([3]; 1 µM) | mean nematode size ln(EXT) (ln) ([3]; 5 µM) | mean nematode size ln(EXT) (ln) ([3]; 10 µM) | mean nematode size ln(EXT) (ln) ([3]; 50 µM) | mean nematode size ln(EXT) (ln) ([3]; 100 µM) | mean nematode size ln(EXT) (ln) ([3]; 200 µM)
24 | S=C([S-])NCCNC(=S)[S-].S=C([S-])NCCNC(=S)[S-].[Mn+2].[Zn+2] [Mancozeb] | > 200 µM | 200 µM | 5.79 | 5.84 | 5.84 | 5.85 | 5.83 | 5.7 | 5.39
25 | Cc1ccc(/N=C/N(C)/C=N/c2ccc(C)cc2C)c(C)c1 [Amitraz] | 200 µM | 200 µM | 6.02 | 5.93 | 6.14 | 5.97 | 5.95 | 6.57 | 4.72
26 | O=C(N[C@H](c1ccccc1)[C@@H]1CN2CCC1CC2)c1c(Cl)ccc(C(F)(F)F)c1Cl | 171 µM | 10 µM | 5.84 | 5.83 | 5.78 | 5.64 | 5.61 | 5.09 | 4.34
27 | CCCCCCCCCCCCc1ccccc1S(=O)(=O)O [Dodecylbenzenesulfonic acid, Na salt] | 50.2 µM | 50 µM | 5.73 | 5.72 | 5.8 | 5.99 | 4.92 | 3.85 | 3.24
28 | CCCCCCC(CCCCCCCCCCC(=O)OCC(COC(C)=O)OC(C)=O)OC(C)=O (stereo not given) | > 200 µM | 50 µM | 5.48 | 5.6 | 5.59 | 5.69 | 5.64 | 5.58 | 5.53
29 | N#Cc1c(Cl)cccc1Cl [Dichlobenil] | > 200 µM | 200 µM | 5.93 | 5.79 | 6.11 | 5.95 | 5.9 | 6.01 | 5.54
30 | CC(Cc1ccc(OCC(=O)O)cc1)NCC(O)c1csc(C(F)(F)F)n1 (stereo not given) | > 200 µM | 200 µM | 5.86 | 5.88 | 5.84 | 6.03 | 5.84 | 5.89 | 5.4
31 | CC(C)[C@H](C(=O)O[C@H](C#N)c1cccc(Oc2ccccc2)c1)c1ccc(Cl)cc1 [Esfenvalerate] | > 200 µM | 200 µM | 5.76 | 5.83 | 5.9 | 5.73 | 5.74 | 5.76 | 5.64
32 | CCCCC(CC)COC(=O)c1ccc(C(=O)OCC(CC)CCCC)c(C(=O)OCC(CC)CCCC)c1 (stereo not given) [Tris(2-ethylhexyl)trimellitate] | > 200 µM | 200 µM | 5.91 | 5.93 | 5.94 | 5.81 | 5.93 | 5.87 | 5.53
33 | N#CC(CCc1ccc(Cl)cc1)(Cn1cncn1)c1ccccc1 (stereo not given) [Fenbuconazole] | 177 µM | 10 µM | 6.18 | 6.1 | 6.07 | 5.65 | 5.13 | 5.27 | 4.39
34 | O=[N+]([O-])c1ccc(Oc2ccc(Cl)cc2Cl)cc1 [2,4-dichloro-1-(4-nitrophenoxy)benzene] | 5.16 µM | 5 µM | 5.88 | 5.74 | 5.03 | 3.93 | 3.8 | 3.76 | 4.04
35 | COc1cccc(C(=O)NN(C(=O)c2cc(C)cc(C)c2)C(C)(C)C)c1C [Methoxyfenozide] | 195 µM | 200 µM | 6.16 | 6.1 | 6.05 | 5.9 | 6 | 6.01 | 4.43
36 | CCC(C)(C)C(=O)O[C@H]1C[C@@H](C)C=C2C=C[C@H](C)[C@H](CC[C@@H]3C[C@@H](O)CC(=O)O3)[C@H]21 [Simvastatin] | > 200 µM | 100 µM | 5.79 | 5.93 | 6 | 5.84 | 5.7 | 5.39 | 4.67
37 | Cc1c2ccccc2c(C)c2c1ccc1ccccc12 [7,12-Dimethylbenz(a)anthracene] | 110 µM | 5 µM | 6.05 | 5.87 | 5.53 | 5.48 | 5.02 | 4.89 | 4
38 | CCCCCCCCN(C)CCCCCCCC [N-Methyldioctylamine] | 182 µM | 200 µM | 5.78 | 5.86 | 5.87 | 5.75 | 5.78 | 5.83 | 4.13
39 | CCc1cccc(CC)c1N(COC)C(=O)CCl [Alachlor] | > 200 µM | 200 µM | 6.11 | 6.07 | 6.12 | 6.1 | 5.76 | 5.74 | 5.1
40 | O=C1OC(c2ccc(O)cc2)(c2ccc(O)cc2)c2ccccc21 [Phenolphthalein] | > 200 µM | 200 µM | 5.87 | 5.86 | 5.87 | 5.87 | 5.78 | 5.84 | 5.55
41 | COP(=O)(OC)OC(Br)C(Cl)(Cl)Br (stereo not given) [Naled] | 95.8 µM | 5 µM | 5.83 | 5.69 | 5.51 | 5.53 | 4.87 | 4.66 | 3.88
42 | CCCCC(CC)COC(=O)CC(C(=O)OCC(CC)CCCC)S(=O)(=O)O (stereo not given) [Docusate sodium] | 57.1 µM | 50 µM | 5.96 | 5.98 | 5.93 | 5.93 | 4.65 | 4.05 | 3.28
43 | CCCCCCCCCCCCCCCCOS(=O)(=O)O [Sodium cetyl sulfate] | 74.7 µM | 50 µM | 5.79 | 6.01 | 5.91 | 5.92 | 5.38 | 5 | 4.68
44 | C#CCC1=C(C)C(OC(=O)C2C(C=C(C)C)C2(C)C)CC1=O (stereo not given) [Prallethrin] | 188 µM | 200 µM | 5.85 | 6.08 | 6.07 | 6.04 | 5.94 | 6.04 | 4.41
45 | Nc1ccc(Oc2ccc(N)cc2)cc1 [4,4'-Oxydianiline] | > 200 µM | 200 µM | 5.84 | 5.87 | 5.84 | 5.83 | 5.54 | 5.83 | 5.39
